Legend:
Conditions in all cases: human; call rule not given here
Hepatotoxicity [1] = assay: FDA HLAED, lactate dehydrogenase (LDH) increase
Hepatotoxicity [2] = assay: FDA HLAED, liver enzyme composite activity
Hepatotoxicity [3] = assay: FDA HLAED, serum glutamic pyruvic transaminase (SGPT) increase
Hepatotoxicity [4] = assay: FDA HLAED, gamma-glutamyl transferase (GGT) increase
Hepatotoxicity [5] = assay: FDA HLAED, serum glutamic oxaloacetic transaminase (SGOT) increase
Hepatotoxicity [6] = assay: FDA HLAED, alkaline phosphatase increase
Wherever GGT Increase - Index Value is given: reference of the scale not given here.
Wherever LDH Increase - Index Value is given: reference of the scale not given here.

Structure (SMILES)	LDH Increase - Activity Score (Hepatotoxicity [1])	LDH Increase - Index Value (Hepatotoxicity [1])	LDH Increase - Number of Reports (Hepatotoxicity [1])	Composite Activity - Active (Hepatotoxicity [2])	Composite Activity - Marginal (Hepatotoxicity [2])	Composite Activity - Score (Hepatotoxicity [2])	SGPT Increase - Activity Score (Hepatotoxicity [3])	SGPT Increase - Index Value (Hepatotoxicity [3])	SGPT Increase - Number of Reports (Hepatotoxicity [3])	GGT Increase - Activity Score (Hepatotoxicity [4])	GGT Increase - Index Value (Hepatotoxicity [4])	GGT Increase - Number of Reports (Hepatotoxicity [4])	SGOT Increase - Activity Score (Hepatotoxicity [5])	SGOT Increase - Index Value (Hepatotoxicity [5])	SGOT Increase - Number of Reports (Hepatotoxicity [5])	Alkaline Phosphatase Increase - Activity Score (Hepatotoxicity [6])	Alkaline Phosphatase Increase - Index Value (Hepatotoxicity [6])	Alkaline Phosphatase Increase - Number of Reports (Hepatotoxicity [6])
Nc1nc(Cl)nc2c1ncn2[C@H]1C[C@H](O)[C@@H](CO)O1 [CLADRIBINE]	Inactive	0	< 4	0	0	Inactive	Inactive	16.2	< 4	Inactive	8.1	< 4	Inactive	16.2	< 4	Inactive	16.2	< 4
CC[C@H]1OC(=O)[C@H](C)[C@@H](O[C@H]2C[C@@](C)(OC)[C@@H](O)[C@H](C)O2)[C@H](C)[C@@H](O[C@@H]2O[C@H](C)C[C@H](N(C)C)[C@H]2O)[C@](C)(OC)C[C@@H](C)C(=O)[C@H](C)[C@@H](O)[C@]1(C)O [CLARITHROMYCIN]	Inactive	1.4	>= 4	0	3	Inactive	Marginally Active	3.3	>= 4	Inactive	1.5	>= 4	Marginally Active	3.8	>= 4	Marginally Active	3.1	>= 4
C[C@H]1C[C@H]2[C@@H]3CCC4=CC(=O)C=C[C@]4(C)[C@@]3(F)[C@@H](O)C[C@]2(C)[C@@]1(O)C(=O)CCl [CLOBETASOL]	Inactive	0	< 4	0	0	Inactive	Inactive	0	< 4	Inactive	0	< 4	Inactive	0	< 4	Inactive	0	< 4
CC(C)/N=c1\cc2n(-c3ccc(Cl)cc3)c3ccccc3nc-2cc1Nc1ccc(Cl)cc1 [CLOFAZIMINE]	Inactive	25.6	< 4	4	0	Active	Active	102.6	>= 4	Active	51.3	< 4	Active	76.9	< 4	Active	76.9	< 4
CN(C)CCCN1c2ccccc2CCc2ccc(Cl)cc21 [CLOMIPRAMINE]	Inactive	0	< 4	0	0	Inactive	Inactive	0	< 4	Inactive	0	< 4	Inactive	0	< 4	Inactive	0	< 4
CN1CCN(C2=Nc3cc(Cl)ccc3Nc3ccccc32)CC1 [CLOZAPINE]	Active	16.8	>= 4	5	0	Active	Active	42.9	>= 4	Active	11.4	>= 4	Active	45.1	>= 4	Active	34.2	>= 4
CC1(C)S[C@@H]2[C@H](NC(=O)C3(N)CCCCC3)C(=O)N2[C@H]1C(=O)O [CYCLACILLIN]	Inactive	0	< 4	0	0	Inactive	Inactive	0	< 4	Inactive	0	< 4	Inactive	0	< 4	Inactive	0	< 4
Cc1ccccc1N1CCN(CCc2nnc3n2CCCC3)CC1 [DAPIPRAZOLE]	Inactive	0	< 4	0	0	Inactive	Inactive	0	< 4	Inactive	0	< 4	Inactive	0	< 4	Inactive	0	< 4
COc1cccc2c1C(=O)c1c(O)c3c(c(O)c1C2=O)C[C@@](O)(C(C)=O)C[C@@H]3O[C@H]1C[C@H](N)[C@H](O)[C@H](C)O1 [DAUNORUBICIN]	Inactive	0	< 4	0	0	Inactive	Inactive	0	< 4	Inactive	0	< 4	Inactive	0	< 4	Inactive	0	< 4

— ChEMBL document CHEMBL1697781, “Assessment of the health effects of chemicals in humans: II. Construction of an adverse effects database for QSAR modeling” (Curr Drug Discov Technol, 2004)
